Legend:
Assay in all cases: microbe, parasite or virus in culture
Type in all cases: functional
Staphylococcus aureus [1] = conditions: ATCC 25923, time 48 hrs
Description: Antibiofilm activity against Staphylococcus aureus ATCC 25923 assessed as inhibition of biofilm formation at 4 ug/ml measured after 48 hrs by crystal violet staining based assay relative to control

Pseudomonas aeruginosa [2] = conditions: ATCC 50071, time 48 hrs
Description: Antibiofilm activity against Pseudomonas aeruginosa ATCC 50071 assessed as inhibition of biofilm formation at 8 ug/ml measured after 48 hrs by crystal violet staining based assay relative to control

Escherichia coli [3] = conditions: DSM 8579, time 48 hrs
Description: Antibiofilm activity against Escherichia coli DSM 8579 assessed as inhibition of bacterial metabolism within the biofilm at 80 ug/ml measured after 48 hrs by MTT assay relative to control

Escherichia coli [4] = conditions: DSM 8579, time 48 hrs; remark: listed apart in the source
Description: Antibiofilm activity against Escherichia coli DSM 8579 assessed as inhibition of bacterial metabolism within the biofilm at 40 ug/ml measured after 48 hrs by MTT assay relative to control

Escherichia coli [5] = conditions: DSM 8579, time 48 hrs; remark: listed apart in the source
Description: Antibiofilm activity against Escherichia coli DSM 8579 assessed as inhibition of biofilm formation at 80 ug/ml measured after 48 hrs by crystal violet staining based assay relative to control

Escherichia coli [6] = conditions: DSM 8579, time 48 hrs; remark: listed apart in the source
Description: Antibiofilm activity against Escherichia coli DSM 8579 assessed as inhibition of biofilm formation at 40 ug/ml measured after 48 hrs by crystal violet staining based assay relative to control

Pseudomonas aeruginosa [7] = conditions: ATCC 50071, time 48 hrs; remark: listed apart in the source
Description: Antibiofilm activity against Pseudomonas aeruginosa ATCC 50071 assessed as inhibition of biofilm formation at 4 ug/ml measured after 48 hrs by crystal violet staining based assay relative to control

Staphylococcus aureus [8] = conditions: ATCC 25923, time 48 hrs; remark: listed apart in the source
Description: Antibiofilm activity against Staphylococcus aureus ATCC 25923 assessed as inhibition of bacterial metabolism within the biofilm at 4 ug/ml measured after 48 hrs by MTT assay relative to control

Listeria monocytogenes [9] = conditions: ATCC 7644, time 48 hrs
Description: Antibiofilm activity against Listeria monocytogenes ATCC 7644 assessed as inhibition of biofilm formation at 4 ug/ml measured after 48 hrs by crystal violet staining based assay relative to control

Staphylococcus aureus [10] = conditions: ATCC 25923, time 48 hrs; remark: listed apart in the source
Description: Antibiofilm activity against Staphylococcus aureus ATCC 25923 assessed as inhibition of biofilm formation at 8 ug/ml measured after 48 hrs by crystal violet staining based assay relative to control

Listeria monocytogenes [11] = conditions: ATCC 7644, time 48 hrs; remark: listed apart in the source
Description: Antibiofilm activity against Listeria monocytogenes ATCC 7644 assessed as inhibition of bacterial metabolism within the biofilm at 8 ug/ml measured after 48 hrs by MTT assay relative to control

Pseudomonas aeruginosa [12] = conditions: ATCC 50071, time 48 hrs; remark: listed apart in the source
Description: Antibiofilm activity against Pseudomonas aeruginosa ATCC 50071 assessed as inhibition of bacterial metabolism within the biofilm at 8 ug/ml measured after 48 hrs by MTT assay relative to control

Listeria monocytogenes [13] = conditions: ATCC 7644, time 48 hrs; remark: listed apart in the source
Description: Antibiofilm activity against Listeria monocytogenes ATCC 7644 assessed as inhibition of biofilm formation at 8 ug/ml measured after 48 hrs by crystal violet staining based assay relative to control

Listeria monocytogenes [14] = conditions: ATCC 7644, time 48 hrs; remark: listed apart in the source
Description: Antibiofilm activity against Listeria monocytogenes ATCC 7644 assessed as inhibition of bacterial metabolism within the biofilm at 4 ug/ml measured after 48 hrs by MTT assay relative to control

Pseudomonas aeruginosa [15] = conditions: ATCC 50071, time 48 hrs; remark: listed apart in the source
Description: Antibiofilm activity against Pseudomonas aeruginosa ATCC 50071 assessed as inhibition of bacterial metabolism within the biofilm at 4 ug/ml measured after 48 hrs by MTT assay relative to control

Staphylococcus aureus [16] = conditions: ATCC 25923, time 48 hrs; remark: listed apart in the source
Description: Antibiofilm activity against Staphylococcus aureus ATCC 25923 assessed as inhibition of bacterial metabolism within the biofilm at 8 ug/ml measured after 48 hrs by MTT assay relative to control

Structure (SMILES)	inhibition at 4 µg/mL (Staphylococcus aureus [1]) [%]	inhibition at 8 µg/mL (Pseudomonas aeruginosa [2]) [%]	inhibition at 80 µg/mL (Escherichia coli [3]) [%]	inhibition at 40 µg/mL (Escherichia coli [4]) [%]	inhibition at 80 µg/mL (Escherichia coli [5]) [%]	inhibition at 40 µg/mL (Escherichia coli [6]) [%]	inhibition at 4 µg/mL (Pseudomonas aeruginosa [7]) [%]	inhibition at 4 µg/mL (Staphylococcus aureus [8]) [%]	inhibition at 4 µg/mL (Listeria monocytogenes [9]) [%]	inhibition at 8 µg/mL (Staphylococcus aureus [10]) [%]	inhibition at 8 µg/mL (Listeria monocytogenes [11]) [%]	inhibition at 8 µg/mL (Pseudomonas aeruginosa [12]) [%]	inhibition at 8 µg/mL (Listeria monocytogenes [13]) [%]	inhibition at 4 µg/mL (Listeria monocytogenes [14]) [%]	inhibition at 4 µg/mL (Pseudomonas aeruginosa [15]) [%]	inhibition at 8 µg/mL (Staphylococcus aureus [16]) [%]
CC1(C)C[C@@H](O)C[C@](C)(O)/C1=C\C(=O)O	12.6	55.5	38.6	14.2	50.3	28.6	0	44.7	0	31.5	33.3	35.7	10.2	13.1	29.2	49.3
COc1cc2oc(-c3ccc(O)cc3)cc(=O)c2c(O)c1OC [CIRSIMARITIN]	0	83.7	50	44.2	65.3	37.7	47.9	0	54	6.6	39	40.2	65.2	26.9	0	52.6
C=C(C)[C@@H]1CC[C@]2(C(=O)O)CC[C@]3(C)[C@H](CC[C@@H]4[C@@]5(C)CC[C@H](O)C(C)(C)[C@@H]5CC[C@]43C)[C@@H]12 [BETULINIC ACID]	30.7	63.4	22.6	15	54.4	33.4	38	0	75.6	75.2	18.7	72.2	80.4	12.7	31.9	14
CC1(C)C[C@H](O)[C@]23CC[C@@H](O)[C@](C)(CC[C@@H]12)C3	0	40	37.5	1.6	45.4	3.2	39.8	0	8.7	0	17.8	40	17.8	8.7	39.8	0
COc1c(C(C)C)cc2c(c1O)[C@@]1(C(=O)O)CCCC(C)(C)[C@@H]1CC2	31.9	81.2	96.1	67.2	66.3	3.2	68.6	0	74.1	72	6.7	71.6	81	4	43.2	0
CC(=O)O[C@H]1CC(C)(C)[C@@H]2CC[C@]3(C)C[C@]12CC[C@H]3O	3.2	45.9	42	0	29.6	0	15.2	0	14.6	16.4	29.4	45.9	23.3	20.6	30.4	4.7
CC1(C)C[C@H]2[C@H]1CC[C@@]1(C)C[C@@]2(O)CC[C@@H]1O	0	4	18.2	0	23.9	0	0	0	14.8	0	23.9	4	38.7	0	0	0
CO[C@H]1c2cc(C(C)C)c(O)c(O)c2[C@@]23CCCC(C)(C)[C@@H]2[C@@H]1OC3=O	23.5	84.7	27.3	0	47.4	32.9	14.7	9.4	16.2	63.3	29.8	30.9	23.8	0	3.1	22.9
COc1c(C(C)C)cc2c(c1O)[C@]1(C(=O)O)CCCC(C)(C)[C@@H]1CC2 (relative stereo)	0	46.8	89.1	46.3	92.8	92.6	27.2	0	6.5	8	17.8	46.8	17.8	6.5	27.2	8
CC1(C)C[C@H]2[C@H]1CC[C@]1(C)C[C@]2(O)CC[C@@H]1O	0	53.6	57.8	38.3	71.9	24.3	42.4	33.3	8.7	17.9	42.2	24.6	25.7	31.1	0	48.6
CC(C)c1cc2c(cc1O)[C@@]1(C)CCCC(C)(C)[C@@H]1CC2 [FERRUGINOL]	38.5	53.2	24.7	9.1	37.5	19.2	52.2	0	35.6	44.6	14.2	45.2	60.9	0	20.3	27.9
C=C1CC/C=C(/C)[C@H](O)C[C@@H]2[C@@H]1CC2(C)CO (some centres not stated)	0	34.3	45.4	13.9	43.1	27.4	18.2	27.7	13.7	34.9	36.8	43.1	51.1	22.4	27.4	31.1

— ChEMBL document CHEMBL4813932, “Terpenoid Constituents of Perovskia artemisioides Aerial Parts with Inhibitory Effects on Bacterial Biofilm Growth” (2021)
